One assay concerns the target GCN5. Details: method as in ref 1 (suppl.), 25 (main text). The conditions noted are these: ITC data; ref 1 (suppl.), 25; cited from earlier work.
The next assay has as its system TNBC cell lines. As to the kind of experiment: OF-1 IC50 in glucose deprivation media. It is filed as cell-based, human. Conditions: 7 days. An excerpt: Graph indicates mean, error bars denote s.d. from eight wells (from two independent assays) and p-value was computed using the Benjamini-Hochberg t test; ***p < 0.001. d Immunoblot validation of BRPF knockdown in MDA-MB-436 cells. e Quantitative real-time PCR (RT-qPCR) validation of BRPF knockdown in MDA-MB-436 cells. […] Raw data images are available in Supplementary Fig. 4 […]
Wood & Pier Lorenzo Puri Scientific Reports volume 7, Article number: 6153 (2017)) as well as the role of the BET proteins in muscle differentiation (Roberts et al, Scientific reports 2017: BRD3 and BRD4 BET Bromodomain Proteins Differentially Regulate Skeletal Myogenesis). […]
Additional minor comment: The writing in the figure is often not readable (very low resolution) […]
with 0.1% DMSO (vol/vol). Cell viability at 7 days was evaluated using Incucyte ZOOM live cell imaging device (Essen Bioscence) and analyzed with Incucyte ZOOM (2016A) software based […]
In this study, Wu and colleagues report on characterization and possible applications of a set of 25 inhibitors for bromodomain. The authors evaluated selectivities of these inhibitors by measuring Kds for the interactions with a large number of bromodomains using ITC and BROMOscan. […]

Assay [1] concerns MDA-MB-436 cells. In words: NAD+/NADH ratio measurement assay. It is filed as cell-based, human. Conditions: BAY-876, 5 days. The method, then: (§1) Cells were seeded in six-well plates followed by overnight incubation. The next day, cells were treated with DMSO or the indicated concentration of BAY-876. After 5 days, cells were lysed, and intracellular metabolites were measured using commercial kits detecting acetyl-CoA (PicoProbe, Abcam ab87546) and NAD^+/NADH ratio (Abcam 65348).

Assay [2] relates to MDA-MB-436 cells. As to the kind of experiment: Acetyl-CoA measurement assay. It is filed as cell-based, human. The conditions noted are these: BAY-876, 5 days. The procedure:
as §1

A further assay has as its target T1, PCAF (Homo sapiens, UniProt Q92831).
T1 sequence (Q92831 723-827 limits assumed): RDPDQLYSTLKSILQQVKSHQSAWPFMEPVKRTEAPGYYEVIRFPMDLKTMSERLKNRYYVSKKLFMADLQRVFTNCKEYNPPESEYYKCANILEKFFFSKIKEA
Details: purchased; method as in ref 2 (suppl.), 26 (main text). The conditions noted are these: BROMOscan; ref 2 (suppl.), 26; cited from earlier work.

The Kd is the free concentration of one partner at which half of the binding sites on the other are occupied at equilibrium, for simple one-to-one binding. Take `Cc1nnc2c3ccccc3c(N[C@@H](C)[C@H](c3ccccc3)N(C)C)nn12` [L-Moses]: on GCN5, the Kd is 600 nM.
Turning to `COc1cc2c(cc1NS(=O)(=O)c1ccc(Br)cc1C)n(C)c(=O)n2C` [OF-1], the OF-1 sensitivity entry with TNBC cell lines is reported as “increase of OF-1 sensitivity”.
As for `Cc1c(NC(=O)c2cc(C(N)=O)nc3cc(F)ccc23)c(C(F)(F)F)nn1Cc1ccc(C#N)cc1` [BAY-876], the “NAD+/NADH ratio” value in the assay with MDA-MB-436 cells [1] is “increase”. The “absolute acetyl-CoA level” value in the assay on MDA-MB-436 cells [2] was “decrease”.
As to `CN1C[C@H](Nc2cnn(C)c(=O)c2Br)C[C@H](c2ccccc2)C1` [GSK4027], the Kd at PCAF is 1.4 nM.

(Values after publication PMC6478789, “A chemical toolbox for the study of bromodomains and epigenetic signaling” (Nature Communications, 2019).)
